Patent US10682371B2, “Small molecule conjugates specifically activated in tumor microenvironment for targeting and use thereof” (priority 2014, dated 2020)
Like-named read-outs stand apart in the source and are kept apart here.

Legend:
[1] = system: Human prostate cancer PC-3 cells / Panc-1 cells; experiment: Tumor treatment in nude mice (PC-3 cells purchased, Panc-1 cells injected; Examples 22, 32, 42); format: in vivo; details: for Inhibition on tumor growth, in words: compared with parent drug group (same molar concentration) and control group
Procedure, shortened: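 Nude mice bearing subcutaneous Panc-1 xenografts (5×10^6 cells on the back) were randomized once tumors reached at least 100 mm^3. Drugs were given intravenously once weekly for four weeks, with saline controls. PC-3 cells were grown in DMEM/10% FBS and used within passage 15.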

tumor tissue homogenates = format: biochemical
Procedure, shortened: (§1)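 Protease-driven activation measured in acidized (pH 6.0) tissue homogenates, 100 μg. Incubation at 37°C with compound at 1 mg/ml.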

[2] = system: Human fibrosarcoma HT-1080 tumor tissue homogenate; format: biochemical; details: Human fibrosarcoma HT-1080
Procedure, shortened: as §1

BALB/C mice = experiment: Maximum tolerated dose (MTD) / acute toxicity by single intravenous injection; details: for Behaviors and death observed: BALB/C mice receiving 90 mg/kg injection
[3] = Solubility / formulation test in solvent 1 and solvent 2; format: physicochemical; details: for Concentration achieved, completely dissolved in both solvent 1 and solvent 2: solvent 1 injectable water
Description: In Table 11, AAN, AANL and AANK indicate the linkage formed by small peptides in the compounds, A is Ala, N is Asn, L is Leu and K is Lys. […] The dissolution concentration is 10 mg/ml.
B1, B2, B3 and B4 and various control compounds were dried under vacuum, sterilized via gas sterilization, and separately packing in a sterile room. Before animal test, B1, B2, B3 and B4 were dissolved by solvent 1 (injectable water) or solvent 2 (30% alcohol, 70% injectable water) and diluted by injectable water to the desired concentration in sterile room. […] Change in solubility may greatly affect the formulation scheme of a drug.
D1, D2, D3, D4 and various control compounds were dried under vacuum, sterilized via gas sterilization, and separately packing in a sterile room. […] Change in solubility may greatly affect the formulation scheme of a drug.

4T1 cells = experiment: BALB/C mice model for tumor metastasis (4T1, lung metastases); format: in vivo; details: for Inhibitory effect on tumor metastasis, in words: compared with parent drug group and control group
Procedure, shortened: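 Read-out: lung metastasis count under anatomical microscope after Bouin's staining, day 27. Treatment (IV every three days ×4, saline for controls) started after surgical removal of the ~1.5 cm subcutaneous tumor grown from 10^6 4T1 cells (passage ≤15) in BALB/C mice.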

[4] = system: Human renal cancer OS-RC-2; experiment: Multiple tumor models in nude mice: OS-RC-2; format: in vivo; details: 15 mg/kg once weekly for three weeks, Day 26
Description: (§2) 1) Corresponding tumor cells were purchased from American type culture collection (ATCC) and identified according the specification provided by ATCC. Cells were cultivated in DMEM culture solution containing 10% fetal bovine serum at 37° C. and 5% CO2. The cells were passaged for every three days and cells within the 15th passage were used.
(§3) 2) Production of tumor. 5×10^6 corresponding cells were subcutaneously injected to the back of the nude mice. Mice were randomly grouped after the tumor reached at least 100 mm^3. Then treatment began and the day on which the treatment began was day 1.
(§4) 3) Course of treatment. […] The control group was administered by physiological saline. Animals were administered once weekly for three weeks.
(§5) 3) Course of treatment. According to the clinical application of A1, A1 was administered in a dose of ⅙ MTD, i.v., 17.6 μmol/kg. The control group was administered by physiological saline. Animals were administered once weekly for three weeks.
(§6) 3) Course of treatment. According to the clinical application of B1, B1 was administered in a dose of ⅙ MTD, i.v., 17.6 μmol/kg. The control group was administered by physiological saline. Animals were administered once weekly for three weeks.
as §4, §4

[5] = system: Human ovarian cancer SK-OV-3; experiment: Multiple tumor models in nude mice: SK-OV-3; format: in vivo; details: 15 mg/kg once weekly for three weeks, Day 26
Description: as §2, §3, §4, §5, §6, §4, §4

[6] = Table 26, nude mice, IV once weekly for four weeks, A1-A4 24 mg/kg, Paclitaxel 8 mg/kg
[7] = single intravenous injection, 125 mg/kg, 10 BALB/C mice per group
[8] = single intravenous injection, 150 mg/kg, 10 BALB/C mice per group
[9] = single intravenous injection, 175 mg/kg, 10 BALB/C mice per group
[10] = single intravenous injection, 200 mg/kg, 10 BALB/C mice per group
[11] = Table 28, BALB/C mice, 4T1, lung metastases day 27, IV every three days for 4 times, A1-A4 12 mg/kg, Paclitaxel 4 mg/kg
[12] = nude mice, IV once weekly for four weeks, S1′-S4′ 24 mg/kg, Paclitaxel 8 mg/kg, Day 10
[13] = nude mice, IV once weekly for four weeks, S1′-S4′ 24 mg/kg, Paclitaxel 8 mg/kg
[14] = 4T1, BALB/C mice, lung, day 27, IV every three days for 4 times, S1′-S4′ 12 mg/kg, Paclitaxel 4 mg/kg

In the case of `COCCOCCOCCOCCOCCOCCOCCOCCOCCOCCOCCOCC(=O)NCCCC[C@H](NC(=O)COCCOCCOCCOCCOCCOCCOCCOCCOCCOCCOCCOC)C(=O)N[C@H](C)C(=O)N[C@H](C)C(=O)N[C@H](CC(N)=O)C(=O)Nc1ccc(COC(=O)OC(C(=O)OC2C[C@@]3(O)[C@@H](OC(=O)c4ccccc4)[C@H]4[C@](C)(C(=O)[C@H](OC(C)=O)C(=C2C)C3(C)C)[C@@H](O)CC2OC[C@]24OC(C)=O)[C@@H](NC(=O)c2ccccc2)c2ccccc2)cc1` (some centres unmarked) [Compound A3], the “inhibitory rate on tumor Day 10” value ([1]; Table 26, nude mice, IV once weekly for four weeks, A1-A4 24 mg/kg, Paclitaxel 8 mg/kg, Day 10) is reported as 71.9%, the “Size of tumor (mm^3) Day 24” value [1, 6] is reported as 81.83 ± 89.2 mm^3 and the “inhibitory rate on tumor Day 24” value [1, 6] is reported as 78.5%. For the same molecule, the “Inhibition on tumor growth, in words” value [1] was “greatly improved”, the “Activation efficiency by tumor tissue, in words” value (tumor tissue homogenates) was “highest activation efficiency among the screened compounds” and the “Activation ratio (%) in homogenates from different tumor tissues” value ([2]; 1 mg/ml, 100 μg acidized homogenate pH6.0, Paclitaxel release by HPLC) was 70.3%. For the same molecule, the “Behaviors and death observed” value (BALB/C mice) was “no pilo-erection, hair tousle and lackluster, lethargy, stoop, irritable reaction and death”, the “Mortality rate (%)” value (BALB/C mice; [7]) was 10% and the “Number of dead animal” value (BALB/C mice; [7]) was 1. The “Mortality rate (%)” value (BALB/C mice; [8]) was 0%, the “Number of dead animal” value (BALB/C mice; [8]) was 0 and the “Mortality rate (%)” value (BALB/C mice; [9]) was 0%. The “Number of dead animal” value (BALB/C mice; [9]) was 0, the “Mortality rate (%)” value (BALB/C mice; [10]) was 0% and the “Number of dead animal” value (BALB/C mice; [10]) was 0. The “solubility in Solvent 1” value ([3]; solvent 1 (injectable water), Table 22, Paclitaxel series) was “soluble”, the “Concentration achieved, completely dissolved in both solvent 1 and solvent 2” value ([3]; solvent 2 45% alcohol, 55% injectable water) was 10000 µg/mL and the “solubility in Solvent 2” value ([3]; solvent 2 (45% alcohol, 55% injectable water), Table 22, Paclitaxel series) was “soluble”. For the same molecule, the “Solubility in water, in words” value ([3]; water) was “can directly dissolve in water”, the “Inhibitory rate on metastasis” value (4T1 cells; [11]) was 89.1% and the “Number of metastasized tumor” value (4T1 cells; [11]) was 16 ± 9. For the same molecule, the “Inhibitory effect on tumor metastasis, in words” value (from here on “Inhibitory effect”) (4T1 cells) was “greatly improved”.

In the case of `COCCOCC(=O)N[C@H](C)C(=O)N[C@H](C)C(=O)N[C@H](CC(N)=O)C(=O)Nc1ccc(COC(=O)N2[C@@H]3CN4C5=C(C(=O)C(N)=C(C)C5=O)[C@H](COC(N)=O)[C@]4(OC)[C@@H]32)cc1` [Compound E1, 2-(2-methoxyethoxy) acetyl-L-Ala-L-Ala-L-Asn-4-amino benzyl mitomycin], the “inhibitory rate on tumor (Day 26)” value [4] is reported as 81.3%, the “Activation ratio (%) in homogenates from different tumor tissues” value ([2]; 37° C., 1 mg/ml, 100 μg acidized homogenate) is reported as 83.6% and the “Mortality rate (%)” value (BALB/C mice; 50 mg/kg single IV injection, 10 BALB/C mice) is reported as 0%. The “Number of dead animal” value (BALB/C mice; 50 mg/kg single IV injection, 10 BALB/C mice, observed 17 days) was 0, the “Mortality rate (%)” value (BALB/C mice; 70 mg/kg single IV injection, 10 BALB/C mice) was 0% and the “Number of dead animal” value (BALB/C mice; 70 mg/kg single IV injection, 10 BALB/C mice, observed 17 days) was 0. The “Mortality rate (%)” value (BALB/C mice; 90 mg/kg single IV injection, 10 BALB/C mice) was 0%, the “Number of dead animal” value (BALB/C mice; 90 mg/kg single IV injection, 10 BALB/C mice, observed 17 days) was 0 and the “Mortality rate (%)” value (BALB/C mice; 110 mg/kg single IV injection, 10 BALB/C mice) was 10%. For the same molecule, the “Number of dead animal” value (BALB/C mice; 110 mg/kg single IV injection, 10 BALB/C mice, observed 17 days) was 1, the “Behaviors and death observed” value (BALB/C mice) was “no pilo-erection, hair tousle and lackluster, lethargy, stoop, irritable reaction and death” and the “inhibitory rate on tumor (Day 26)” value [5] was 84.5%. For the same molecule, the “Inhibitory effect” value (4T1 cells) was “greatly improved”, the “Inhibitory rate on metastasis” value (4T1 cells; day 27, IV once every three days for 4 times, E1-E4 15 mg/kg, mitomycin 1 mg/kg) was 99.2% and the “Number of metastasized tumor” value (4T1 cells; lung metastases counted on day 27, IV once every three days for 4 times, E1-E4 15 mg/kg, mitomycin 1 mg/kg) was 2 ± 3.

With `COCCOCCOCCOCCOCCOCCOCCOCCOCCOCCOCCOCC(=O)N[C@H](C)C(=O)N[C@H](C)C(=O)N[C@H](CC(N)=O)C(=O)Nc1ccc(COC(=O)OC(C(=O)OC2C[C@@]3(O)[C@@H](OC(=O)c4ccccc4)[C@H]4[C@](C)(C(=O)[C@H](OC(C)=O)C(=C2C)C3(C)C)[C@@H](O)CC2OC[C@]24OC(C)=O)[C@@H](NC(=O)c2ccccc2)c2ccccc2)cc1` (some centres unmarked) [S3′] the “Inhibition on tumor growth, in words” value [1] was “greatly improved”, the “Size of tumor (mm^3) Day 10” value [1, 12] was 75.60 ± 28.54 mm^3 and the “inhibitory rate on tumor Day 10” value [1, 12] was 49.4%. For the same molecule, the “Size of tumor (mm^3) Day 24” value [1, 13] was 74.39 ± 48.94 mm^3, the “inhibitory rate on tumor Day 24” value [1, 13] was 70.2% and the “Activation efficiency by tumor tissue, in words” value (tumor tissue homogenates) was “highest activation efficiency among the screened compounds”. For the same molecule, the “Activation ratio (%) in homogenates from different tumor tissues” value ([2]; 100 μg acidized homogenate pH6.0, 1 mg/ml, 37°) was 67.9%, the “Behaviors and death observed” value (BALB/C mice) was “no pilo-erection, hair tousle and lackluster, lethargy, stoop, irritable reaction and death” and the “Mortality rate (%)” value (BALB/C mice; BALB/C mice, single iv, 125 mg/kg) was 0%. For the same molecule, the “Number of dead animal” value (BALB/C mice; BALB/C mice, single iv, 125 mg/kg, 10 animals) was 0, the “Mortality rate (%)” value (BALB/C mice; BALB/C mice, single iv, 150 mg/kg) was 0% and the “Number of dead animal” value (BALB/C mice; BALB/C mice, single iv, 150 mg/kg, 10 animals) was 0. The “Mortality rate (%)” value (BALB/C mice; BALB/C mice, single iv, 175 mg/kg) was 0%, the “Number of dead animal” value (BALB/C mice; BALB/C mice, single iv, 175 mg/kg, 10 animals) was 0 and the “Mortality rate (%)” value (BALB/C mice; BALB/C mice, single iv, 200 mg/kg) was 10%. For the same molecule, the “Number of dead animal” value (BALB/C mice; BALB/C mice, single iv, 200 mg/kg, 10 animals) was 1, the “solubility in Solvent 1” value ([3]; Solvent 1 injectable water, dissolution concentration 10 mg/ml) was “soluble” and the “solubility in Solvent 2” value ([3]; Solvent 2: 50% injectable water, 45%-49% propanediol, 1%-5% Tween80, dissolution concentration 10 mg/ml) was “soluble”. For the same molecule, the “Concentration achieved, completely dissolved in both solvent 1 and solvent 2” value ([3]; solvent 2 50% injectable water, 42%-49% propanediol, 1%-8% Tween80) was 10000 µg/mL, the “Inhibitory rate on metastasis” value (4T1 cells; [14]) was 90.44% and the “Number of metastasized tumor” value (4T1 cells; [14]) was 13 ± 8. For the same molecule, the “Inhibitory effect” value (4T1 cells) was “greatly improved”.
